Data from article PMC10892120, “Design, Synthesis and Biological Assessment of N′-(2-Oxoindolin-3-ylidene)-6-methylimidazo[2,1-b]thiazole-5-carbohydrazides as Potential Anti-Proliferative Agents toward MCF-7 Breast Cancer” (Pharmaceuticals, 2024).

Columns and labels:
Bax = experiment: RT-PCR gene expression in treated MCF-7 cells: Bax; assay type: cell-based; details: treated MCF-7 cells vs untreated control MCF-7 (=1)
Method: (§1) The gene expression levels of apoptosis genes in MCF-7 cells were measured using RT-PCR to validate the apoptosis-inducing behaviors of the potent lead compound 6i in MCF-7 cells.
(§2) The gene expression levels of apoptosis genes were evaluated in MCF-7 cells using the following approaches in the Supplementary Data, page 43.
(§3) Inhibitor solution of each well labeled as “Test Inhibitor”. For the “Positive Control" and “Blank”, add 5 μl of the same solution without inhibitor (Inhibitor buffer). Prepare 3 ml of 1x Kinase Buffer 1 by mixing 600 μl of 5x Kinase Buffer 1 with 2400 μl water. 3 ml of 1x Kinase Buffer 1 is sufficient for 100 reactions. To the wells designated as "Blank", add 20 μl of 1x Kinase Buffer 1.
(§4) Thaw VEGFR2 enzyme on ice. Upon first thaw, briefly spin tube containing enzyme to recover full content of the tube. Calculate the amount of VEGFR2 required for the assay and dilute enzyme to 1 ng/μl with 1x Kinase Buffer 1. Store remaining undiluted enzyme in aliquots at -80°C. Note:
(§5) VEGFR2 enzyme is sensitive to freeze/thaw cycles. Avoid multiple freeze/thaw cycles. […]
(§6) use thawed aliquots or diluted enzyme. […]
(§7) thoroughly, and then centrifuge at 4°C to collect contents to the bottom of the tube. […] Preparation of a reaction cocktail is crucial in quantitative PCR applications to reduce pipetting errors and maximize assay precision and accuracy. […]

Caspase-9 = experiment: RT-PCR gene expression in treated MCF-7 cells: caspase 9; assay type: cell-based; details: treated MCF-7 cells vs untreated control MCF-7 (=1)
Method: as §1, §2, §3, §4, §5, §6, §7

Caspase-8 = experiment: RT-PCR gene expression in treated MCF-7 cells: caspase 8; assay type: cell-based; details: treated MCF-7 cells vs untreated control MCF-7 (=1)
Method: as §1, §2, §3, §4, §5, §6, §7

VEGFR-2 = VEGFR-2 (Homo sapiens, UniProt P35968); experiment: In vitro VEGFR-2 kinase inhibition assay; assay type: biochemical; details: mean ± SD of three experiments
MCF-7 = experiment: Apoptotic assay, Annexin V/PI analysis in MCF-7; assay type: cell-based; details: MCF-7, Annexin V/PI, % given only in Figure 5
Method: In comparison to the control cells, the apoptotic assay employing Annexin V/PI analysis for compound 6i generated a substantial amount of early and late apoptosis in MCF-7. Compound 6i induced early apoptosis in MCF-7 at rate of 22.05, compared with the control MCF-7 (0.43) (Table 6 and Figure 5).
These were performed using the approach described in the Supplementary Data, page 44 [46]. […]
thoroughly, and then centrifuge at 4°C to collect contents to the bottom of the tube. Chill on ice before using. Centrifuge again briefly at 4°C if needed. Preparation of a reaction cocktail is crucial in quantitative PCR applications to reduce pipetting errors and maximize assay precision and accuracy. Assemble the reaction cocktail with all required components except sample template (total RNA) and dispense equal aliquots into each reaction tube. Add target sample to each reaction as the final step. Addition of sample as 5–10 μl volumes will improve assay precision. Replicate samples should be assembled as a master mix with a single addition of sample template.
Cell cycle analysis and apoptosis
Transfer the previously prepared cells from 4 °C to the bench-top and equilibrate to room temperature. Gently re-suspend cells by inverting the tube or by gentleup and down pipetting.
There may be visible thin salt crystals in the tube but this will not affect the sedimentation of the cells in the next step. Pellet the cells at 500 x g for 5 minutes. Carefully aspirate the supernatant without disrupting the pellet. It is better to incompletely remove the supernatant than to accidently aspirate part of the pellet and lose cells. Wash the cells by gently resuspending in 1 mL 1X PBS.
Again, pellet the cells at 500 x g for 5 minutes and carefully remove the supernatant. Gently resuspend the cell pellet in 200 μL 1X Propidium Iodide + RNase Staining Solution. Then ensure that the cells are fully resuspended. Incubate at 37 °C in the dark for 20 – 30 minutes. Place tubes on ice (still in the dark) and prepare for flow cytometry analysis. Gently resuspend cells that settled during the incubation by pipetting up and down. If desired, pass cells through an appropriate filter (not provided) to remove cell aggregates. Run samples on flow cytometer: Set appropriate FSC vs. SSC gates to exclude debris and cell aggregates. Collect Propidium iodide fluorescence in FL2.
The Protein Data Bank (http://www.rcsb.org) was utilized to obtain the 3D structures of […]
was used to conduct docking studies on established analogues with the VEGFR-2 active site. This program was run with a searching grid that was stretched across ligand molecules, with box […]
parameters set to default. The highest scoring posit ion for every compound was chosen after docking it into the crystal structure. […]

Chain of VEGFR-2 (P35968 20-1356): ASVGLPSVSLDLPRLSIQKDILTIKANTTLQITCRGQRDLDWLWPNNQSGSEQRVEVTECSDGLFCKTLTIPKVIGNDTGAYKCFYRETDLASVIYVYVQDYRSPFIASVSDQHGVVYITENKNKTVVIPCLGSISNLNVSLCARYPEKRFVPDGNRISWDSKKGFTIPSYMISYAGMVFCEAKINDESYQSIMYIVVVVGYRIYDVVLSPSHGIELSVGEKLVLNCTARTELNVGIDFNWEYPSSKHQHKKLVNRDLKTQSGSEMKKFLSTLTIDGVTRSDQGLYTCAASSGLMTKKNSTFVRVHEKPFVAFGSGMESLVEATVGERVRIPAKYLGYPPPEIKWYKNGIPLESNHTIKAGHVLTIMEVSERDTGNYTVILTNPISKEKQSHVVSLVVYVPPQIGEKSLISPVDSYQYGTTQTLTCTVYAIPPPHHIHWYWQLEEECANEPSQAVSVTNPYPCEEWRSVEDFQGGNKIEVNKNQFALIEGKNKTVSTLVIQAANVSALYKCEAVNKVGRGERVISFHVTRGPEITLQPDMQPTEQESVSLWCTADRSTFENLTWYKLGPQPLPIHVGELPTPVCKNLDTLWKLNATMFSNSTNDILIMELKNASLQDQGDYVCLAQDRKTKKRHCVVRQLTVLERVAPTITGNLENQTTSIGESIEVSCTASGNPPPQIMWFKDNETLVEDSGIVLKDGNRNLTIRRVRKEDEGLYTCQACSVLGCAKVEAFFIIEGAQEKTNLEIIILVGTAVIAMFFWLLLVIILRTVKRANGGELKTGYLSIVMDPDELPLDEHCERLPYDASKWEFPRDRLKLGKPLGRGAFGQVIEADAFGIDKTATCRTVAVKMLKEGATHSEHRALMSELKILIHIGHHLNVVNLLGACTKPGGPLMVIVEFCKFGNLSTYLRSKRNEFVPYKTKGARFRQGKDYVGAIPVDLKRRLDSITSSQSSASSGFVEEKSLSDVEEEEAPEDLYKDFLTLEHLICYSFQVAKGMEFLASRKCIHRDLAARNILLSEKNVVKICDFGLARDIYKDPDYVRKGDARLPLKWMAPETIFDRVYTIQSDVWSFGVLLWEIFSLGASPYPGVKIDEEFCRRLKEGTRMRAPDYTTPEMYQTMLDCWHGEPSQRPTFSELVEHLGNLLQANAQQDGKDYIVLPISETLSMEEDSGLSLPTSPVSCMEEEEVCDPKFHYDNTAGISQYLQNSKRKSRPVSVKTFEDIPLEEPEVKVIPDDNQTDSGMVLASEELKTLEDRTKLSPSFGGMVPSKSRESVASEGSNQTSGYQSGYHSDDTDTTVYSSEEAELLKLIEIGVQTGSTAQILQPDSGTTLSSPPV

CCCCN1C(=O)C(=NNC(=O)c2c(C)nc3sccn23)c2ccccc21 [Compound 6i, N′-(1-Butyl-2-oxoindolin-3-ylidene)-6-methylimidazo[2,1-b]thiazole-5-carbohydrazide]
RT-PCR Fold Change Bax (Bax): 4.337 fold | RT-PCR Fold Change Caspase-9 (Caspase-9): 4.947 fold | RT-PCR Fold Change Caspase-8 (Caspase-8): 2.727 fold | IC50 (VEGFR-2): 330 ± 10 nM | Apoptosis Late (MCF-7; control 0.11): 7.61% | Apoptosis Early (MCF-7; control 0.43): 22.05% | Necrosis (MCF-7; control 1.37): 3.15% | Apoptosis Total (MCF-7; control 1.91): 32.81%
